Row | SMILES | melting point
1 | CCOCc1nc2c(N)nc(C)cc2n1NC(C)C [Example 3, 2-(Ethoxymethyl)-N^1-isopropyl-6-methyl-1H-imidazo[4,5-c]pyridine-1,4-diamine] | 139 to 141 °C
2 | Cc1nc(N)c2nc(C)n(NCCCNS(C)(=O)=O)c2c1C [Example 15, N-{3-[(4-Amino-2,6,7-trimethyl-1H-imidazo[4,5-c]pyridin 1-yl)amino]propyl}methanesulfonamide] | 215 to 217 °C
3 | CCOCc1nc2c(N)nc(C)c(C)c2n1NCCCNC(=O)NC(C)C [Example 16, 1-{3-[(4-Amino-2-ethoxymethyl-6,7-dimethyl-1H-imidazo[4,5-c]pyridin-1-yl)amino]propyl}-3-isopropylurea] | 203 to 205 °C
4 | OCc1nc2cnc3cccnc3c2n1NC1CCOCC1 [Example 38, [1-(Tetrahydro-2H-pyran-4-yl)amino-1H-imidazo[4,5-c][1,5]naphthyridin-2-yl]methanol] | 203 to 205 °C
5 | Cc1nc(N)c2nc(C)n(NC(C)C)c2c1C [Example 11, N^1-Isopropyl-2,6,7-trimethyl-1H-imidazo[4,5-c]pyridine-1,4-diamine] | 203 to 205 °C
6 | Cc1nc(N)c2nc(CO)n(NCc3ccccc3)c2c1C [Example 22, (4-Amino-1-benzylamino-6,7-dimethyl-1H-imidazo[4,5-c]pyridin-2-yl)methanol] | > 250 °C
7 | CCOCc1nc2c(N)nc(C)c(C)c2n1NCc1ccc(Cl)c(Cl)c1 [Example 45, N^1-(3,4-Dichlorobenzyl)-2-ethoxymethyl-6,7-dimethyl-1H-imidazo[4,5-c]pyridine-1,4-diamine] | 186 to 188 °C
8 | CCOCc1nc2c(N)ncc(C)c2n1NC(C)C [Example 2, 2-(Ethoxymethyl)-N^1-isopropyl-7-methyl-1H-imidazo[4,5-c]pyridine-1,4-diamine] | 119 to 121 °C
9 | CCOCc1nc2c(N)nc(C)c(C)c2n1NCCCS(C)(=O)=O [Example 39, 2-(Ethoxymethyl)-6,7-dimethyl-N^1-[3-(methylsulfonyl)propyl]-1H-imidazo[4,5-c]pyridine-1,4-diamine] | 150 to 155 °C
10 | CCc1nc2c(N)nc3cccnc3c2n1NCCCNS(C)(=O)=O [Example 8, N-{3-[(4-amino-2-ethyl-1H-imidazo[4,5-c][1,5]naphthyridin-1-yl)amino]propyl}methanesulfonamide] | 176 to 178 °C
11 | CCOCc1nc2c(N)nc(C)c(C)c2n1NCCCNC(=O)OCC [Example 49] | 148 to 150 °C
12 | CC(C)Nn1c(CO)nc2c(N)nc3cccnc3c21 [Example 6, [4-Amino-1-(isopropylamino)-1H-imidazo[4,5-c][1,5]naphthyridin-2-yl]methanol] | 242 to 243 °C
13 | CCOCc1nc2c(N)nc(C)c(C)c2n1NCCCNS(C)(=O)=O [Example 13, N-{3-[(4-Amino-2-ethoxymethyl-6,7-dimethyl-1H-imidazo[4,5-c]pyridin-1-yl)amino]propyl}methanesulfonamide] | 147 to 149 °C
14 | CCOCc1nc2c(N)nc(C)c(C)c2n1N(C)C [Example 9, 2-(Ethoxymethyl)-N^1,N^1,6,7-tetramethyl-1H-imidazo[4,5-c]pyridine-1,4-diamine] | 170 to 171 °C
15 | CCOCc1nc2c(N)nc3cccnc3c2n1NCc1ccccc1 [Example 34, N^1-Benzyl-2-ethxoymethyl-1H-imidazo[4,5-c][1,5]naphthyridine-1,4-diamine] | 169 to 171 °C
16 | CCOCc1nc2c(N)nc3cccnc3c2n1NC(C)C [Example 4, 2-(Ethoxymethyl)-N^1-isopropyl-1H-imidazo[4,5-c][1,5]naphthyridine-1,4-diamine] | 150 to 152 °C
17 | Cc1nc(N)c2ncn(N(C)C)c2c1C [Example 10, N^1,N^1,6,7-Tetramethyl-1H-imidazo[4,5-c]pyridine-1,4-diamine] | 205 to 207 °C
18 | CCc1nc2c(N)nc3cccnc3c2n1NC(C)C [Example 7, 2-Ethyl-N^1-isopropyl-1H-imidazo[4,5-c][1,5]naphthyridine-1,4-diamine] | 212 to 213 °C
19 | Cc1nc(N)c2nc(CO)n(NCc3cccnc3)c2c1C [Example 20, [4-Amino-6,7-dimethyl-1-(pyridin-3-yl)methylamino-1H-imidazo[4,5-c]pyridin-2-yl]methanol] | 258 to 260 °C
20 | CCOCc1nc2c(N)nc(C)c(C)c2n1NCc1ccccc1 [Example 21, N^1-Benzyl-2-ethoxymethyl-6,7-dimethyl-1H-imidazo[4,5-c]pyridine-1,4-diamine] | 149 to 151 °C
21 | CCOCc1nc2c(N)nc(C)c(C)c2n1NCc1cccnc1 [Example 19, 2-Ethoxymethyl-6,7-dimethyl-N^1-(pyridin-3-yl)methyl-1H-imidazo[4,5-c]pyridine-1,4-diamine] | 147 to 149 °C
22 | CCOCc1nc2cnc3cccnc3c2n1NC1CCOCC1 [Example 36, 2-Ethxoymethyl-N-(tetrahydro-2H-pyran-4-yl)-1H-imidazo[4,5-c][1,5]naphthyridin-1-amine] | 130 to 133 °C

The remaining lines, values ahead:

Row | melting point | SMILES
23 | 139 to 141 °C | CCOCc1nc2c(N)nc(C)c(C)c2n1NC1CCC1 [Example 23, N^1-Cyclobutyl-2-ethoxymethyl-6,7-dimethyl-1H-imidazo[4,5-c]pyridine-1,4-diamine]
24 | > 250 °C | Cc1nc(N)c2nc(CO)n(NC3CCOCC3)c2c1C [Example 26, [4-Amino-6,7-dimethyl-1-(tetrahydropyran-4-yl)amino-1H-imidazo[4,5-c]pyridin-2-yl]methanol]
25 | 94 to 97 °C | CCOCc1nc2cnc(C)c(C)c2n1NC1CCOCC1 [Example 27, 2-Ethoxymethyl-6,7-dimethyl-N-(tetrahydropyranyl)-1H-imidazo[4,5-c]pyridin-1-amine]
26 | 110 to 120 °C | COCCc1nc2c(N)nc(C)c(C)c2n1NC1CCOCC1 [Example 51, 2-(2-Methoxyethyl)-6,7-dimethyl-N^1-(tetrahydropyran-4-yl)-1H-imidazo[4,5-c]pyridine-1,4-diamine]
27 | 240 to 242 °C | Cc1nc(N)c2nc(C)n(NC3CCOCC3)c2c1C [Example 32, 2,6,7-Trimethyl-N^1-(tetrahydropyran-4-yl)-1H-imidazo[4,5-c]pyridine-1,4-diamine]
28 | 191 to 193 °C | CCOCc1nc2c(N)nc3cccnc3c2n1NC1CCOCC1 [Example 37, 2-Ethxoymethyl-N^1-(tetrahydro-2H-pyran-4-yl)-1H-imidazo[4,5-c][1,5]naphthyridine-1,4-diamine]
29 | 110 to 120 °C | CCOCc1nc2c(N)nc(C)c(C)c2n1NC(C)C [Example 1, 2-(Ethoxymethyl)-N^1-isopropyl-6,7-dimethyl-1H-imidazo[4,5-c]pyridine-1,4-diamine]
30 | 242 to 244 °C | Cc1nc(N)c2nc(C)n(NC3CCCCC3)c2c1C [Example 28, N^1-Cyclohexyl-2,6,7-trimethyl-1H-imidazo[4,5-c]pyridine-1,4-diamine]
31 | > 250 °C | Cc1nc(N)c2nc(CO)n(NC3CCCCC3)c2c1C [Example 18, (4-Amino-1-cyclohexylamino-6,7-dimethyl-1H-imidazo[4,5-c]pyridin-2-yl)methanol]
32 | 254 to 256 °C | Cc1nc(N)c2nc(CO)n(NC3CCCC3)c2c1C [Example 47, (4-Amino-1-cyclopentylamino-6,7-dimethyl-1H-imidazo[4,5-c]pyridin-2-yl)methanol]
33 | 259 to 261 °C | Cc1nc(N)c2ncn(NC3CCCCC3)c2c1C [Example 30, N^1-Cyclohexyl-6,7-dimethyl-1H-imidazo[4,5-c]pyridine-1,4-diamine]
34 | 257 to 259 °C | Cc1nc(N)c2nc(CO)n(NC(C)C)c2c1C [Example 12, (4-Amino-1-isopropylamino-6,7-dimethyl-1H-imidazo[4,5-c]pyridin-2-yl)methanol]
35 | 160 to 162 °C | CCCCc1nc2c(N)nc(C)c(C)c2n1NC1CCCCC1 [Example 31, 2-Butyl-N^1-cyclohexyl-6,7-dimethyl-1H-imidazo[4,5-c]pyridine-1,4-diamine]
36 | 177 to 179 °C | CCCc1nc2c(N)nc(C)c(C)c2n1NC1CCCCC1 [Example 33, N^1-Cyclohexyl-6,7-dimethyl-2-propyl-1H-imidazo[4,5-c]pyridine-1,4-diamine]
37 | 108 to 110 °C | CCOCc1nc2c(N)nc(C)c(C)c2n1NC1CCCCC1 [Example 17, N^1-Cyclohexyl-2-ethoxymethyl-6,7-dimethyl-1H-imidazo[4,5-c]pyridine-1,4-diamine]
38 | 190 to 192 °C | Cc1nc(N)c2nc(CCO)n(NC3CCOCC3)c2c1C [Example 50, 2-[4-Amino-6,7-dimethyl-1-(tetrahydropyran-4-yl)amino-1H-imidazo[4,5-c]pyridin-2-yl]ethanol]
39 | 211 to 213 °C | Cc1nc(N)c2nc(CO)n(NC3CCC3)c2c1C [Example 24, (4-Amino-1-cyclobutylamino-6,7-dimethyl-1H-imidazo[4,5-c]pyridin-2-yl)methanol]
40 | 190 to 192 °C | CCc1nc2c(N)nc(C)c(C)c2n1NC1CCCCC1 [Example 29, N^1-Cyclohexyl-2-ethyl-6,7-dimethyl-1H-imidazo[4,5-c]pyridine-1,4-diamine]
41 | 120 to 122 °C | CCOCc1nc2c(N)nc(C)c(C)c2n1NC1CCOCC1 [Example 25, 2-Ethoxymethyl-6,7-dimethyl-N^1-(tetrahydropyran-4-yl)-1H-imidazo[4,5-c]pyridine-1,4-diamine]
42 | 191 to 193 °C | CCc1nc2c(N)nc(C)c(C)c2n1NC1CCOCC1 [Example 48, 2-Ethyl-6,7-dimethyl-N^1-(tetrahydropyran-4-yl)-1H-imidazo[4,5-c]pyridine-1,4-diamine]
43 | 130 to 132 °C | CCOCc1nc2c(N)nc(C)c(C)c2n1NC1CCCC1 [Example 46, N^1-Cyclopentyl-2-ethoxymethyl-6,7-dimethyl-1H-imidazo[4,5-c]pyridine-1,4-diamine]
44 | 127 to 131 °C | CCOCc1nc2c(N)nc(C)c(C)c2n1NC1CCN(S(C)(=O)=O)CC1 [Example 40, 2-(Ethoxymethyl)-6,7-dimethyl-N^1-[1-(methylsulfonyl)piperidin-4-yl]-1H-imidazo[4,5-c]pyridine-1,4-diamine]

— US20090270443A1, “1-AMINO IMIDAZO-CONTAINING COMPOUNDS AND METHODS” (priority 2004, published 2009)
